Results published in US10307357B2, “Prebiotic oral care compositions containing an alkyl glycoside” (COLGATE-PALMOLIVE COMPANY, priority 2013, dated 2019).

Experiments:
Assay in all cases: Phenotype microarray metabolic activity
Format in all cases: cell-based
Settings in all cases: control = 1
[1] = tested on: Actinomyces viscosus
Experimental: (§1) The extent of metabolic activity of the tested bacteria in the presence of the above-mentioned glycosides after 24 hours and 48 hours was investigated through a high throughput phenotype microarray system (PM) for microbial cells (Biolog Inc.). Each PM can contain up to 95 different biochemical compounds (e.g. glycosides) that may act as substrates for bacteria as well as one negative control, not containing the substrates. Microarray plates were used in which the different wells of each plate were pre-loaded (by the manufacturer, Biolog Inc.) with different glycosides to be tested. Each bacterial species was tested using a separate microarray plate. Thus, a single bacterial species was tested with a variety of glycosides on each particular plate. The microarrays are based on redox technology, using cell respiration as a universal reporter. Active cell respiration results in the reduction of a tetrazolium dye and in the formation of a strong color—for example, when using the tetrazolium dye “Biolog Redox Dye Mix D”, the color changes from transparent/colorless to purple when the dye is reduced. The observation of this color change indicates which of the substrates improve the metabolic activity and health of the cells. Each bacterial species was collected from blood agar plates (incubated for 48 hours anaerobically at 37° C.) and transferred to an IF-0 Base inoculation fluid (Biolog Inc.), which is a nutritionally poor medium. The resulting cell suspension was adjusted to a transmittance of 42% (relative to the transmittance of the base inoculation fluid with no bacterial species present) at 492 nm using a BioRad SmartSpec 3000 Photometer (the adjustment being effected by adding either further inoculation fluid or further bacteria until the transmittance of 42% was achieved). A 1:5 dilution of this suspension was prepared by mixing 3 mL of the 42% transmittance cell suspension with […] of an inoculation fluid (which inoculation fluid was formed by mixing 11.6 mL sterile water, 62.5 mL IF-0 base inoculation fluid and 0.9 mL of the tetrazolium dye “Biolog Redox Dye mix D”), resulting in a final cell density which was equal to 85% transmittance using a BioRad SmartSpec 3000 Photometer. For each of the glycosides tested, the microarray plate (obtained from the supplier (Biolog Inc.) with glycosides already present in the relevant wells in powder form) was directly inoculated with 100 μL/well of this 85% transmittance cell suspension. All plates were incubated in an anaerobic atmosphere at 37° C. Color changes were measured spectrophotometrically at 492 nm (Thermo Scientific Multiskan Ascent) at 24 hrs and 48 hrs using the same plate at both time points. […] After 24 hrs and 48 hrs under continuous shaking in a Multiscan microplate reader, the optical density (OD) of the synthetic medium at 24 hours and 48 hours was measured (using the microplate reader) at a wavelength of 492 nm for each combination of bacterium/glycoside, and for each of their respective controls (i.e. which contained the particular bacterium but no glycosides). […] The experiment was carried out three times for each combination of bacterium with glycosides, with each repeat being carried out on a different day (thus providing three biological replicas). The controls were also carried out three times, as above. The values shown are the average (mean) of the three single values obtained (as detailed above) for each combination of bacterium with glycosides, at 24 hrs and at 48 hrs.

[2] = tested on: Streptococcus sanguinis
Experimental: as §1

[3] = tested on: Streptococcus gordonii
Experimental: as §1

[4] = tested on: Streptococcus mutans
Experimental: as §1

[5] = tested on: Veillonella parvula
Experimental: as §1

[6] = tested on: Aggregatibacter actinomycetemcomitans
Experimental: as §1

[7] = tested on: Tannerella forsythia
Experimental: as §1

[8] = tested on: Streptococcus mitis
Experimental: as §1

[9] = tested on: Fusobacterium nucleatum
Experimental: as §1

[10] = tested on: Streptococcus sobrinus
Experimental: as §1

[11] = tested on: Capnocytophaga sputigena
Experimental: as §1

[12] = tested on: Prevotella intermedia
Experimental: as §1

[13] = tested on: Streptococcus salivarius
Experimental: as §1

[14] = tested on: Porphyromonas gingivalis
Experimental: as §1

[15] = tested on: Actinomyces naeslundii
Experimental: as §1

| SMILES | OD 492 nm divided by control (metabolic activity) ([1]; 24 hrs) | OD 492 nm divided by control (metabolic activity) ([1]; 48 hrs) | OD 492 nm divided by control (metabolic activity) ([2]; 24 hrs) | OD 492 nm divided by control (metabolic activity) ([2]; 48 hrs) | OD 492 nm divided by control (metabolic activity) ([3]; 24 hrs) | OD 492 nm divided by control (metabolic activity) ([3]; 48 hrs) | OD 492 nm divided by control (metabolic activity) ([4]; 24 hrs) | OD 492 nm divided by control (metabolic activity) ([4]; 48 hrs) | OD 492 nm divided by control (metabolic activity) ([5]; 24 hrs) | OD 492 nm divided by control (metabolic activity) ([5]; 48 hrs) | OD 492 nm divided by control (metabolic activity) ([6]; 24 hrs) | OD 492 nm divided by control (metabolic activity) ([6]; 48 hrs) | OD 492 nm divided by control (metabolic activity) ([7]; 24 hrs) | OD 492 nm divided by control (metabolic activity) ([7]; 48 hrs) | OD 492 nm divided by control (metabolic activity) ([8]; 24 hrs) | OD 492 nm divided by control (metabolic activity) ([8]; 48 hrs) | OD 492 nm divided by control (metabolic activity) ([9]; 24 hrs) | OD 492 nm divided by control (metabolic activity) ([9]; 48 hrs) | OD 492 nm divided by control (metabolic activity) ([10]; 24 hrs) | OD 492 nm divided by control (metabolic activity) ([10]; 48 hrs) | also measured |
| --- | --- | --- | --- | --- | --- | --- | --- | --- | --- | --- | --- | --- | --- | --- | --- | --- | --- | --- | --- | --- | --- |
| CO[C@H]1O[C@H](CO)[C@H](O)[C@H](O)[C@H]1O [α-methyl-D-galactoside] | 2.4728 | 3.3823 | 1.0198 | 1.1007 | 0.8960 | 0.8401 | 1.0573 | 0.9904 | 0.9782 | 1.2054 | 0.8204 | 0.7697 | 1.0380 | 1.1302 | 1.3498 | 1.3555 | 0.8949 | 0.8204 | 1.0761 | 0.9730 | OD 492 nm divided by control (metabolic activity) ([11]; 24 hrs): 0.5747; OD 492 nm divided by control (metabolic activity) ([11]; 48 hrs): 0.8435; OD 492 nm divided by control (metabolic activity) ([12]; 24 hrs): 0.9609; OD 492 nm divided by control (metabolic activity) ([12]; 48 hrs): 0.9269; OD 492 nm divided by control (metabolic activity) ([13]; 24 hrs): 0.9677; OD 492 nm divided by control (metabolic activity) ([13]; 48 hrs): 0.8829; OD 492 nm divided by control (metabolic activity) ([14]; 24 hrs): 0.8079; OD 492 nm divided by control (metabolic activity) ([14]; 48 hrs): 0.8180; OD 492 nm divided by control (metabolic activity) ([15]; 24 hrs): 2.1644; OD 492 nm divided by control (metabolic activity) ([15]; 48 hrs): 2.8156 |
| CO[C@@H]1O[C@H](CO)[C@H](O)[C@H](O)[C@H]1O [β-methyl-D-galactoside] | 2.8391 | 3.9827 | 1.0434 | 1.0609 | 1.4834 | 1.8026 | 1.1594 | 1.0780 | 0.8103 | 0.6840 | 0.8310 | 0.7733 | 1.2183 | 1.8850 | 1.0977 | 0.9864 | 0.9051 | 0.7899 | 1.3078 | 1.3002 | OD 492 nm divided by control (metabolic activity) ([11]; 24 hrs): 1.0421; OD 492 nm divided by control (metabolic activity) ([11]; 48 hrs): 1.0860; OD 492 nm divided by control (metabolic activity) ([12]; 24 hrs): 1.0543; OD 492 nm divided by control (metabolic activity) ([12]; 48 hrs): 1.0046; OD 492 nm divided by control (metabolic activity) ([13]; 24 hrs): 6.9837; OD 492 nm divided by control (metabolic activity) ([13]; 48 hrs): 6.4661; OD 492 nm divided by control (metabolic activity) ([14]; 24 hrs): 1.1297; OD 492 nm divided by control (metabolic activity) ([14]; 48 hrs): 1.8212; OD 492 nm divided by control (metabolic activity) ([15]; 24 hrs): 1.5393; OD 492 nm divided by control (metabolic activity) ([15]; 48 hrs): 1.9886 |
